Activity calls are given as the source filed them.
What was measured:
HEK293 [1] = experiment: cells; type: functional, cell-based; details: Homo sapiens
HEK293 [2] = experiment: inhibition of NOD1-driven NF-kB reporter – cell-based, luminescence, uHTS, primary screen (AID 1578); type: functional; details: Homo sapiens
Tumor necrosis factor = Tumor necrosis factor (Homo sapiens, UniProt P01375); experiment: analog potency on TNFa NF-kB signaling – cell-based, revised, SAR follow-up (AID 2337); type: functional
HEK293 [3] = experiment: cells; type: functional, cell-based; details: Homo sapiens; remark: listed apart in the source
HEK293 [4] = experiment: NOD2 signaling inhibitors in MDP-stimulated cells, cell-based, uHTS, luminescence (AID 2001); type: functional; details: Homo sapiens
[5] = target: T1, Nucleotide-binding oligomerization domain-containing protein 1 (Homo sapiens, UniProt Q9Y239); experiment: blockers of NOD1 pathway activity – revised, SAR follow-up (AID 2333); type: functional
T1 sequence (Q9Y239 whole entry): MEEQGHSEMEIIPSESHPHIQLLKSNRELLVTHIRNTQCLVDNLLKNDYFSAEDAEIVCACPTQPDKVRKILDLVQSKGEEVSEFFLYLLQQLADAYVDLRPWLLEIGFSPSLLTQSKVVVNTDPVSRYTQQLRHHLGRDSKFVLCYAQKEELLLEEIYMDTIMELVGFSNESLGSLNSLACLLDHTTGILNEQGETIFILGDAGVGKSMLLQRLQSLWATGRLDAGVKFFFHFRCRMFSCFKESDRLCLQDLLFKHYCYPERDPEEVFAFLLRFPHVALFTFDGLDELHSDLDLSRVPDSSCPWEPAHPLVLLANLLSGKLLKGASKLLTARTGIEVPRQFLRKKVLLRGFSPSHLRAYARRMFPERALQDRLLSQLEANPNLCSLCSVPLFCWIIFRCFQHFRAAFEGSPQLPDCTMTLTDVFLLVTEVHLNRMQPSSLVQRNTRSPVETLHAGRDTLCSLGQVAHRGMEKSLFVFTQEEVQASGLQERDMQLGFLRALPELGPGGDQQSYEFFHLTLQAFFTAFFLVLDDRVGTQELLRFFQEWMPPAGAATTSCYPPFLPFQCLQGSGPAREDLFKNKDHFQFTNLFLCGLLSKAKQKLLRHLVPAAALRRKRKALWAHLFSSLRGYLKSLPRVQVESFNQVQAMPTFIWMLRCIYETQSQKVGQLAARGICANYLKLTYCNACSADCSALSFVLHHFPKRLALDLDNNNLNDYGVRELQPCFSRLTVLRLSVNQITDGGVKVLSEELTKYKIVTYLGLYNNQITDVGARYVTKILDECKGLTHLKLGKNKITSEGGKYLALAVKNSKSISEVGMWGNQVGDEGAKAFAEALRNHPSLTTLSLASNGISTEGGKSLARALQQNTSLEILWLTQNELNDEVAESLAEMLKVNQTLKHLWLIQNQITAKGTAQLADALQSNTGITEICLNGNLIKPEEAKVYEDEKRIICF

HEK293 [6] = experiment: cells; details: Homo sapiens
[7] = target: T2, COUP transcription factor 2 (Homo sapiens, UniProt P24468); experiment: Luminescence-based cell-based high throughput dose response assay to identify inhibitors of COUP-TFII (NR2F2).; type: functional;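 further: HEK293 cells transiently cotransfected with COUP-TFII expression vector and reporter; luciferase reporter luminescence driven by COUP-TFII from the pX2-168 reporter plasmid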
T2 sequence (P24468 whole entry): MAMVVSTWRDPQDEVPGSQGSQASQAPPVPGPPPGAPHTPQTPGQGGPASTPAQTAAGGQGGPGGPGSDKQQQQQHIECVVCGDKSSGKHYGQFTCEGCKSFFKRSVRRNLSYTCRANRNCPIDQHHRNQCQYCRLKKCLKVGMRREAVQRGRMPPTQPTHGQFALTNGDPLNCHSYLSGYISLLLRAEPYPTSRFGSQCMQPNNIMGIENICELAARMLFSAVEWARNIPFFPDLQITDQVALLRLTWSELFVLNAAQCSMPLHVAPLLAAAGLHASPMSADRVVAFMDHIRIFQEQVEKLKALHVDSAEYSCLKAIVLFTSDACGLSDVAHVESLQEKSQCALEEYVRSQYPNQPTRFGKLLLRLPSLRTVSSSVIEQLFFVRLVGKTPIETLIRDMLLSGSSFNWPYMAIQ

[8] = Trypanosoma cruzi growth suppression in host cells – NIH3T3 host cells, beta-gal luminescence, confirmation (AID 2044); type: functional, cell-based;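 further: intracellular parasites grown in NIH/3T3 mouse fibroblasts as host cells; luminescent beta-galactosidase reporter signal from transgenic T. cruzi replicating inside host cells; inhibitors lower the luminescence signal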
[9] = target: T3, Short transient receptor potential channel 4 (Mus musculus, UniProt Q9QUQ5); experiment: block of DAMGO-driven TRPC4 calcium entry – cell-based, HEK293 TRPC4/mu-opioid, Fluo-4 calcium, dose response (AID 434942); type: functional;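 further: potency of inhibitors blocking the TRPC4 calcium response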
T3 sequence (Q9QUQ5 whole entry): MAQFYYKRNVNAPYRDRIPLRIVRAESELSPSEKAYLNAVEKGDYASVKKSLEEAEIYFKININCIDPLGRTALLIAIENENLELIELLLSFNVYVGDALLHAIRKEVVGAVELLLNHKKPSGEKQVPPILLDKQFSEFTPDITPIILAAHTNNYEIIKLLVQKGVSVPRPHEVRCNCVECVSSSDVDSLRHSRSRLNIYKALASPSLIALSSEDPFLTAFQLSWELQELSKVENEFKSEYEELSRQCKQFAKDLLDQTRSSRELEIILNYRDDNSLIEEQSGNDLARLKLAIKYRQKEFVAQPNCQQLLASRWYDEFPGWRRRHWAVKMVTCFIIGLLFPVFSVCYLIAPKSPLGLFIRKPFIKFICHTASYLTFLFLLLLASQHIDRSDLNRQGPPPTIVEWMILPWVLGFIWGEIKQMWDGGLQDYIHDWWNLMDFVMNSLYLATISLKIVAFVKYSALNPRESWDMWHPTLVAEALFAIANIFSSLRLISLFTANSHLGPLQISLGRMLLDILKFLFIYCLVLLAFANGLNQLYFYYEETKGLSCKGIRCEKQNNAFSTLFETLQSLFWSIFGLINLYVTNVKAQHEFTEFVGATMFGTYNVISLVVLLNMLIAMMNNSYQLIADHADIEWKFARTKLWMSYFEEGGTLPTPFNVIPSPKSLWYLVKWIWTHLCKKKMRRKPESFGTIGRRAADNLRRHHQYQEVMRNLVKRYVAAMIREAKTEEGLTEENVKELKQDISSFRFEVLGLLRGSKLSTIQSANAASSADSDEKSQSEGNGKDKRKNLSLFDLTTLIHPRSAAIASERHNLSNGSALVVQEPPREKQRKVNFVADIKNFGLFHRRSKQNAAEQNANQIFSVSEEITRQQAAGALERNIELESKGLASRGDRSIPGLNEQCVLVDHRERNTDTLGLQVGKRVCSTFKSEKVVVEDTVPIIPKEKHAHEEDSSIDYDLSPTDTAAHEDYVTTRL

[10] = NIH3T3 cell viability loss – ATP luminescence, mouse fibroblasts, counter-screen, dose response (AID 2010); type: functional, cell-based;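 further: cells exposed to compound for about 90 hours before reading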
Cytochrome P450 2D6 = Cytochrome P450 2D6 (Homo sapiens, UniProt P10635);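 further: CYP2D6 member of a cytochrome P450 panel assay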
Vero [11] = experiment: cells; type: functional, cell-based; details: Chlorocebus sabaeus
Vero [12] = experiment: cells; type: functional; details: Chlorocebus sabaeus
Cytochrome P450 1A2 = target: T4, Cytochrome P450 1A2 (Homo sapiens, UniProt P05177);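 further: PubChem cytochrome P450 panel assay, CYP1A2 panel member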
T4 sequence (P05177 whole entry): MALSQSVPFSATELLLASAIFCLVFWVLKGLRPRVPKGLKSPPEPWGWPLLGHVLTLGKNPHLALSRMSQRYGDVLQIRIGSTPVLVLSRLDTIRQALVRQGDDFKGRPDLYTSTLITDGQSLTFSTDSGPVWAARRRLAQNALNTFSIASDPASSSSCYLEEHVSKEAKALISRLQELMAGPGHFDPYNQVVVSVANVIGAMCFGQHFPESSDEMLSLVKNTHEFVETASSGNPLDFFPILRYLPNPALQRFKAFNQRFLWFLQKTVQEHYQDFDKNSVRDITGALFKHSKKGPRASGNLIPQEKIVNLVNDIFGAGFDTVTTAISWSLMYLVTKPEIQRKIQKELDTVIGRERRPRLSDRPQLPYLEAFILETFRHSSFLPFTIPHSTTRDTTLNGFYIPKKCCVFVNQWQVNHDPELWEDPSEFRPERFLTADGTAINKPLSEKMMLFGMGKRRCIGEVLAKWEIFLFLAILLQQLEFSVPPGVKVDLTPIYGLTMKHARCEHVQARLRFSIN

Cytochrome P450 2C9 = Cytochrome P450 2C9 (Homo sapiens, UniProt P11712)
[13] = target: SWI/SNF-related matrix-associated actin-dependent regulator of chromatin subfamily A member 2 (Homo sapiens, UniProt P51531); experiment: Luminescence-based cell-based high throughput dose response assay to identify activators of the function of SWI/SNF related, matrix associated, actin dependent regulator of chromatin, subfamily a, member 2 (SMARCA2, BRM).; type: functional
[14] = viability of uninfected HEp-2 cells – cell-based, HTS, cytotoxicity control for RSV inhibitor project, dose response (AID 2410); type: functional; details: human respiratory syncytial virus
CAAX prenyl protease 1 = target: T5, CAAX prenyl protease 1 (Saccharomyces cerevisiae S288c, UniProt P47154); experiment: yeast CAAX protease Ste24 inhibition – biochemical, S. cerevisiae, plate reader, cherry-pick, dose response (AID 488815)
T5 sequence (P47154 whole entry): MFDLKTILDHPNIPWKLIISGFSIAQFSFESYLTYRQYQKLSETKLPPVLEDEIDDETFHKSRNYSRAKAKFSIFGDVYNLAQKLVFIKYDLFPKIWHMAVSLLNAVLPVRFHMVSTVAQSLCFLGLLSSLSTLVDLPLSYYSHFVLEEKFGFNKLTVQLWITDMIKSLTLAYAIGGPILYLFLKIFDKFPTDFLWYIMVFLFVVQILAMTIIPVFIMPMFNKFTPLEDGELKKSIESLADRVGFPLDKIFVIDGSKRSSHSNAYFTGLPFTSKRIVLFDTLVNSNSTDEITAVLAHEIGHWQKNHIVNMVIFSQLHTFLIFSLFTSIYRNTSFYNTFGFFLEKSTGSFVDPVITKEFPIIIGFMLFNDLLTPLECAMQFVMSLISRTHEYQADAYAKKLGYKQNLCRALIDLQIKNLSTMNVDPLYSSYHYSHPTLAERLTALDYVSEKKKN

Trypsin = Trypsin (Sus scrofa, UniProt P00761); experiment: trypsin protease activity blockade – biochemical, quenched peptide fluorescence, cherry-pick, selectivity assay for Rce1 protease inhibitor project, dose response (AID 488789)
CAAX prenyl protease 2 = target: T6, CAAX prenyl protease 2 (Homo sapiens, UniProt Q9Y256); experiment: inhibition of Ras-converting CAAX protease Rce1 – biochemical, yeast membranes, quenched-peptide fluorescence, cherry-pick, dose response (AID 588849)
T6 sequence (Q9Y256 whole entry): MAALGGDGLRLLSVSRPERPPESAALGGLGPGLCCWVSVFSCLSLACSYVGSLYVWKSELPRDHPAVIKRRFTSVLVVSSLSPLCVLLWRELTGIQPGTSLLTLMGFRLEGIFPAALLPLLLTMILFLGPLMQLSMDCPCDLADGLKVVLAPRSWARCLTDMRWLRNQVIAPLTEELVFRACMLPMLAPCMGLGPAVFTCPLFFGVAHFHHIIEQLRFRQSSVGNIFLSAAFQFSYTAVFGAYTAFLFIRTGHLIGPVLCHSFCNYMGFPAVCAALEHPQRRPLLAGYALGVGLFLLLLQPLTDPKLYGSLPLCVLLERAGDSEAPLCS

[15] = Counterscreen for activators of the function of SWI/SNF related, matrix associated, actin dependent regulator of chromatin, subfamily a, member 2 (SMARCA2, BRM): Luminescence-based cell-based high throughput dose response assay to identify non-selective compounds using the VP16 reporter assay.; type: functional

Cytochrome P450 2D6, sequence (P10635 whole entry): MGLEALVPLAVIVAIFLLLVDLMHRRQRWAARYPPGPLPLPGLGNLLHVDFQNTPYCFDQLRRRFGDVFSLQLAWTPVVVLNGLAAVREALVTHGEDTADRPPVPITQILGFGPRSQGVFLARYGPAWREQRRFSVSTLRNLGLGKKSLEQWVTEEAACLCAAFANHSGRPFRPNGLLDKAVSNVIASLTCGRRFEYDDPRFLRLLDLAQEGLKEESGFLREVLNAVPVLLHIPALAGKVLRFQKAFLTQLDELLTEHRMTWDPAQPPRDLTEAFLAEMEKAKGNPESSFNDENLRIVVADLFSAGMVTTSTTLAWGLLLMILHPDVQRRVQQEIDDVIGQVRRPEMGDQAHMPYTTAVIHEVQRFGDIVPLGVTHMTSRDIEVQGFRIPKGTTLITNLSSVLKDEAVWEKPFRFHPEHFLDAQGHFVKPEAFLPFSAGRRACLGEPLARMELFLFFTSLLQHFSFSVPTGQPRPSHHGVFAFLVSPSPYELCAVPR
Tumor necrosis factor, sequence (P01375 whole entry): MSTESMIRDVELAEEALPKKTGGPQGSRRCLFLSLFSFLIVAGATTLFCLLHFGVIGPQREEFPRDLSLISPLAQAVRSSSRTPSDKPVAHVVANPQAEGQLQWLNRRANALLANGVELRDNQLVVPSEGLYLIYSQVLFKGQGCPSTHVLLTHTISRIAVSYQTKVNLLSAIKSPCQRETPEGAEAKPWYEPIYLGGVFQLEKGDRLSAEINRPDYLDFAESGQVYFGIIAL
Cytochrome P450 2C9, sequence (P11712 whole entry): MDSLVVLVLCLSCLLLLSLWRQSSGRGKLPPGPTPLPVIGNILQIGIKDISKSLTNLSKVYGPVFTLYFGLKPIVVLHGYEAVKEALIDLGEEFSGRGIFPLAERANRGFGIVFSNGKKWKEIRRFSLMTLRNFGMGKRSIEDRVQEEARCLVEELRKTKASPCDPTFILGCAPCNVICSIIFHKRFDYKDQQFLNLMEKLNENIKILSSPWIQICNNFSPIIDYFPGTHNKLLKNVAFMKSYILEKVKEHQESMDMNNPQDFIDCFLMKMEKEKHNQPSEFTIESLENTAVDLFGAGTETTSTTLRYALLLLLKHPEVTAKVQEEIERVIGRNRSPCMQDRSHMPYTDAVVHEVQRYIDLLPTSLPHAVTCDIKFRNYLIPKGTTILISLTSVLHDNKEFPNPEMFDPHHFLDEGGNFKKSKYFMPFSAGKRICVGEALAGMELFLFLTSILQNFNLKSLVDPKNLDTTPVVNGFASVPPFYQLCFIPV
SWI/SNF-related matrix-associated actin-dependent regulator of chromatin subfamily A member 2, sequence (P51531 whole entry): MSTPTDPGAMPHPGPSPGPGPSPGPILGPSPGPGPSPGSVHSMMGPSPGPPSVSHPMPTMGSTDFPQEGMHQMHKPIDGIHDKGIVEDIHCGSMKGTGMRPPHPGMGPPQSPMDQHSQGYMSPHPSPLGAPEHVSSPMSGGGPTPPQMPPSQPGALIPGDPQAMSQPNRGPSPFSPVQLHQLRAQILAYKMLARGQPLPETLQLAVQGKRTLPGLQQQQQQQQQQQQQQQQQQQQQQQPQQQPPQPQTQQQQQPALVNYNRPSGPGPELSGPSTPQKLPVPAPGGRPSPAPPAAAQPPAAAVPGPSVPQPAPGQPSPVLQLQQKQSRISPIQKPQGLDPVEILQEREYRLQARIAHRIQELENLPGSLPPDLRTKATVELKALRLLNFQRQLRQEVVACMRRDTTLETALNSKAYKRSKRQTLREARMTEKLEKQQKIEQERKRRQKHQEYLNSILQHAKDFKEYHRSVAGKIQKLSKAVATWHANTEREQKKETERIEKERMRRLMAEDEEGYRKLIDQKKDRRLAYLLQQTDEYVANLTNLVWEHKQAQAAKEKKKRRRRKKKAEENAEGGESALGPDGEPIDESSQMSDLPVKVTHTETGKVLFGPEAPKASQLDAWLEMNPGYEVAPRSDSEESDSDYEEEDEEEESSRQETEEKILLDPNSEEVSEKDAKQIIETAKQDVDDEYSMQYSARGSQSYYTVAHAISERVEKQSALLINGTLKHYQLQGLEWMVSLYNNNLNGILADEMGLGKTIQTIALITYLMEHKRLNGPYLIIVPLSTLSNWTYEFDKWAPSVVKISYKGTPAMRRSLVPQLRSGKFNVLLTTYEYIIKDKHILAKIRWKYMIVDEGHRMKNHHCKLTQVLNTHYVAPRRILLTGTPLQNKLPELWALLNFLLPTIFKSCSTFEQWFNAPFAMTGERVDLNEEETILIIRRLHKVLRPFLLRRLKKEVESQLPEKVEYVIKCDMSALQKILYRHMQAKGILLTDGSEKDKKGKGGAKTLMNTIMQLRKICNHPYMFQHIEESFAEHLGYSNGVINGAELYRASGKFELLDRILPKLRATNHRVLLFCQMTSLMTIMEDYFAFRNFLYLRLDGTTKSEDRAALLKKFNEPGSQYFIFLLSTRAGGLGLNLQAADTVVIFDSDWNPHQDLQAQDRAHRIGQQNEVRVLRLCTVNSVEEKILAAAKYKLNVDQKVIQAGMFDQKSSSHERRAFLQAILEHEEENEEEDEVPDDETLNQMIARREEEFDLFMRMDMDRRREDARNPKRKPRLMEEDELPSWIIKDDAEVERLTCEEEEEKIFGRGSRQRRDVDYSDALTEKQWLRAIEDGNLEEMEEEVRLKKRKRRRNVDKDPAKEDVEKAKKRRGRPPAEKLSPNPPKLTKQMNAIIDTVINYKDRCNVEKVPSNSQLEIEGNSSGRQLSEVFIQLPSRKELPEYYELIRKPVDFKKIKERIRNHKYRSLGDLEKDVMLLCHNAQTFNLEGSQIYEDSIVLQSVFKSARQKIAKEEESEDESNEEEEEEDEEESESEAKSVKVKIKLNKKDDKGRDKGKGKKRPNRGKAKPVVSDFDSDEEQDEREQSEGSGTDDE
Trypsin, sequence (P00761 whole entry): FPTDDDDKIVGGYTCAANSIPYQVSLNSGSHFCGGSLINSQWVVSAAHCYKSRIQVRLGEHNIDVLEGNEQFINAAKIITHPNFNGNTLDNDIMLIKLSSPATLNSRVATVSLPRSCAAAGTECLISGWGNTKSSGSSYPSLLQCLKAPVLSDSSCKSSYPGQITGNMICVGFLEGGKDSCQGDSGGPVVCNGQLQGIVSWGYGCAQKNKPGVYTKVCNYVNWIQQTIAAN

## Cc1oc(-c2cccc3ccccc23)nc1CN1CCN(c2ncnc3ccccc23)CC1
HEK293 [1]
  IC50: 4.08 µM (active)
HEK293 [2]
  EC50: 7.79 µM (active)
Tumor necrosis factor
  IC50: > 20 µM (inactive)
HEK293 [3]
  IC50: 6.63 µM (active)
HEK293 [4]
  IC50: 3.28 µM (active)
[5]
  IC50: > 20 µM (inactive)
HEK293 [6]
  IC50: > 20 µM (inactive)

## N=c1c2c(n(Cc3ccc(Cl)cc3)c3c1CCC3)CCC2
HEK293 [1]
  IC50: 11.8 µM (active)
HEK293 [2]
  EC50: 10.2 µM (active)
[7]
  IC50: 9.25 µM (active)
[8]
  EC50: 0.443 µM (active)
[9]
  EC50: 7.5 µM (active)
HEK293 [3]
  IC50: > 20 µM (inactive)
HEK293 [4]
  IC50: 15.4 µM (inactive)
[10]
  EC50: > 60 µM (not active)

## COC(=O)C/C=C\[C@@H](C)[C@@H](/C=N\OC[C@@H](O)COCc1ccco1)OC
Cytochrome P450 2D6
  AC50: inconclusive

## COc1cc(C(=O)/C=C/c2cccnc2)ccc1O
Vero [11]
  IC50: > 25 µM (active)
Vero [12]
  CC50: 21.2 µM (active)

## COc1ccc(-n2nnnc2/C=C\Nc2ccccc2C(=O)c2ccccc2)cc1
Cytochrome P450 1A2
  AC50: 22.4 µM (inconclusive)
Cytochrome P450 2C9
  AC50: inconclusive
Cytochrome P450 2D6
  AC50: inconclusive

## CC[C@H]1CN(C)[C@H]2Cc3c([nH]c4ccccc34)C(=O)C[C@H]1[C@H]2C(=O)OC
Cytochrome P450 2D6
  AC50: inconclusive

## NS(=O)(=O)c1ccc(N/N=C/c2cn(-c3ccccc3)nc2-c2cccs2)cc1
[13]
  EC50: > 91.2 µM (inactive)
[14]
  CC50: 12.2 µM (active)
CAAX prenyl protease 1
  AC50: 7.44 µM (active)
Trypsin
  AC50: 7.03 µM (active)
CAAX prenyl protease 2
  AC50: 16.7 µM (active)
Vero [12]
  CC50: 11.3 µM (active)
[15]
  EC50: > 91.2 µM (inactive)
